Assay results from paper PMC4683533, “Discovery of novel INK4C small-molecule inhibitors to promote human and murine hematopoietic stem cell ex vivo expansion” (Scientific Reports, 2015).

Columns and labels:
[1] = test system: human cord blood CD34+ cells (CD34+CD49f+ cells); experiment: human cord blood CD34+ cell ex vivo culture and screen; format: cell-based; conditions: dose response, Fig. 4B
Method: Based on our study of murine HSCs, we further tested whether these p18SMIs could expand human cord blood CD34^+ cells in ex vivo culture. […] We cultured human cord blood CD34^+ cells for 7 days in HSCs expansion media in the presence of 200 nM of p18SMIs, and then analyzed the percentage and absolute number of CD34^+CD49f^+ cells by flow cytometry. We screened 40 p18SMIs, of which14 compounds could increase the number of CD34^+CD49f^+ cells compared with the control group (Fig. S6). […] Then we conducted a concentration gradient assay on top three p18SMIs with ED50 less than 10 nM (compounds 22, 40 and 41). […] Only in specific doses could they show their expansion effect on human HSCs (Fig. 4B).
Human cord blood samples were collected from consenting donors according to ethically approved procedures at Tianjin Central Hospital of Gynecology Obstetrics (Tianjin, China), under a protocol approved by the Ethical Committee on Medical Research at the Institute of Hematology. Human CD34^+ cord blood cells were isolated using human CD34 MicroBead Kit (MiltenyiBiotec) according to the manufacturer’s protocol after settling red cells with HES and red cells lysis with ACK Lysis Buffer.
Human CD34^+ cells were cultured in expansion medium consisting of StemSpan SFEM (StemCell Technologies) supplemented with 100 ng/mL human stem cell factor (SCF, PeproTech), 50 ng/mL human thrombopoietin (TPO, PeproTech), 100 ng/mL human FMS-like trysine kinase 3 ligand (Flt3L, PeproTech). Human CD34^+ cells were resuspended in expansion medium (5 × 10^4 cells/mL) before being aliquoted in 96-well plates (Costar, Corning Incorporated). Compounds, all with a final concentration of 200 nM, were dissolved in DMSO and added immediately in cell suspension after plating. The final concentration of DMSO in the control group was the same as in the compounds-treated group. Cells were cultured at 37 °C in 5% CO2. Based on the results of primary screening upon human cells and the results of ED50, we chose three compounds for further experiments. The expansion medium was changed to StemSpan SFEM (StemCell Technologies) supplemented with 100 ng/mL human stem cell factor (SCF, PeproTech), 100 ng/mL human thrombopoietin (TPO, PeproTech), 100 ng/mL human FMS-like trysine kinase 3 ligand (Flt3L, PeproTech) and 100 ng/mL human interleukin-6 (IL-6, PeproTech) for better expansion effect. The incubation condition was consistent with before.
Phenotypes analysis of cultured cells was performed on a BD FACS Array (Becton Dickinson Biosciences) using a combination of the following antibodies: APC anti-CD34 (BD Biosciences), PE anti-CD49f (BD Biosciences). Stained cells were washed once with PBS and then measured and analyzed on an FACS analyzer (FACSArray, BD Biosciences).

[2] = test system: HSCs (CD34−LKS cells); experiment: single hematopoietic stem cell in vitro culture (nmEM colony) assay; format: cell-based, mouse; conditions: single CD34−LKS cell culture, 14 days, ratio of nmEM wells to DMSO control
Method: We biologically assessed the 22 putative p18SMI compounds for their ability to maintain HSCs stem cell characteristics, to be specific self-renewal and multi-lineage differentiation, using single cell cultures. […] Thus, we employed single HSC culture to assess p18SMI compounds’ effect upon HSCs. CD34^−LKS cells from C57BL/6 mice were individually deposited into a 96-well plate (one cell/well). The single cell was cultured for 14 days in 100 μL of serum-free medium (Gibco) containing 100 ng/mL of mouse stem cell factor (SCF), 10 ng/mL of mouse interleukin-3 (IL-3), 25 ng/mL of human thrombopoietin (TPO), 2 U/mL of human erythropoietin (EPO) and differing concentrations of the p18SMI compound. Cells were cultured 14 days for in vitro colony formation and colonies were then cytospined and analyzed by flow cytometry to test the subpopulation of cultured cells. Neutrophils (n), macrophages (m), erythroblasts (E) or megakaryocytes (M) were identified by the cell marker of Gr-1, Mac-1, Ter-119 and CD41 using flow cytometry. The wells from each group that generated all lineages (nmEM) were counted and the ratio to the control group (DMSO) was calculated.
Single CD34^-LKS cells from C57BL/6 mice were individually deposited into each well of a 96-well plate along with 100 μL of serum free medium (Gibco) containing 100 ng/mL of mouse SCF, 10 ng/mL of mouse IL-3, 25 ng/mL of human TPO, 2 U/mL of human EPO and p18SMI compounds (different dilutions). Cells were cultured in a 37 °C, 5% CO2 incubator for 14 days for ex vivo colony formation. Colonies were then cytospined and analyzed using flow cytometry. Neutrophils (n), macrophages (m), erythroblasts (E) or megakaryocytes (M) were identified based on their cell surface maker, Gr-1, Mac-1, Ter119 and CD41. Cells were measured on an FACS analyzer (FACSArray, BD Biosciences). […] The wells from each group that generated all lineages (nmEM) were counted. The ratio of p18SMI compound treatment group to the control group (DMSO-treated) was calculated and fitted to a curve to calculate the ED50 value using GraphPad Prism v6.0.

[3] = test system: LT-HSCs; parameters: method as in PMID 25692908; conditions: CDK inhibitor alone; cited from earlier work
[4] = test system: HSCs (bone marrow MNCs); experiment: cobblestone area forming cells (CAFC) assay with limiting dilution assay (LDA); format: cell-based, mouse; conditions: day 35
Method: We also investigated whether the increased number of phenotypic SLAM^+LT-HSCs in short-term culture assays was correlated with an increase in functional LT-HSCs. Cobblestone area forming cells (CAFC) assay combined with limiting-dilution assays (LDA) were performed to measure the frequency of HSCs[19][22][30]. Compared with the control group (HSC frequency is 1 in 112,559 of the original plated cells), the frequency of HSC at day 35 (indicating the activity of hematopoietic reconstitution capacity) was 2.7-fold and 3.0-fold higher in the cultures treated with XIE18–6 (HSC frequency is 1 in 42,490 of the original plated cells) and compound 40 (HSC frequency is 1 in 37,524 of the original plated cells) (p < 0.001, Fig. 3C), respectively.
Freshly isolated bone marrow MNCs from mice, 6–8 weeks old, were plated in a 24-well plate with 1 mL Dexter’s medium at a density of 2 × 10^6 cells per mL in the absence or presence of different doses of the tested compounds. The culture was maintained at 33 °C with 5% CO2. The number of cobblestone areas (CAs) was counted weekly. The medium was also replaced with half fresh medium on a weekly basis. For the limiting dilution analysis (LDA) of the test cells, different limiting doses were plated on the irradiated stromal cells in 96-well plates containing 200 μL of M5300 medium (StemCell Technologies) supplemented with 10^−6 M hydrocortisone. Each group was done with 20 replicates well. Small-molecule compounds were added to the co-culture system at different doses. Half of the medium in each well was replaced with fresh medium containing the test compounds weekly. The existence of CA in each well was evaluated under an inverted microscope at weekly intervals for 5 weeks. Based on the Poisson distribution of the negative wells, the frequency of long-term initiating cells was calculated with L-Calc software (StemCell Technologies).

[5] = test system: LT-repopulating HSCs (CD34-LKS cells); experiment: competitive bone marrow transplantation (cBMT) assay; format: in vivo, mouse
Method: Figure 3 Treatment of c-Kit-enriched murine BM cells with p18SMI compounds enhances HSC expansion. (A) The average number of total cells, HSPCs (Lin^−Sca1^+) and long term (LT)-HSCs (Lin^-Sca1^+CD48^−CD150^+) were analyzed by flow cytometry. (B) Single CD34^−LKS cell were deposited into each well of a 96-well plate, along with differentiation medium plus different concentrations of p18SMI compounds to show the dose-response effect of p18SMI compounds. (C) CAFC-LDA assay of cells treated with XIE18-6, compound 40 and DMSO to reveal the frequency of primitive HSCs. Above data (A–C) is mean ± SEM for all experiments of two or more and were performed in duplicate or triplicate. (D) Experimental design for transplantation (n = 10). CD34^-LKS cells were sorted into 96-well plates at 50 cells/well and cultured for 3 days with cytokine plus 20 μM of compounds or DMSO. Cells from each well were mixed with 2 × 10^6 freshly isolated bone marrow MNCs and co-transplanted by tail-vein injection into lethally irradiated CD45.2 recipient mice. 16 weeks after transplantation, bone marrow MNCs were stained to determine the engraftment level of donor cells. Bone marrow MNCs were also stained for lineage analysis. Multi-lineage differentiation was examined by flow cytometry. GM, T and B indicate lineages for myeloid, T and B cells, respectively. (E,F) The engraftment levels at 16 weeks after primary transplantation, and multi-lineage differentiation profile. Data is mean ± SEM for all experiments (***p < 0.001, **p < 0.01). TEXT PRINTED IN THE PICTURE: (E) #40: Engrafment%: *** 5.93X | (E) XIE18-6: Engrafment%: ** 3.01X DOUBTS OF THE COPYIST ABOUT THIS PICTURE: Panel E: 5.93X and 3.01X are printed on brackets running from #40 and from XIE18-6 to DMSO. No measure is printed beside them, so the axis label 'Engrafment%' was used as the measure.
The increased frequency and total number of functional LT-HSCs after treatment with p18SMI compounds was further confirmed by competitive bone marrow transplantation (cBMT) assay (Fig. 3D). CD34^-LKS cells were first sorted and cultured w/o p18SMI compound for 3 days. Then the cultured cells were gathered and co-transplanted into lethally irradiated mice with competitor cells. […] Moreover, the engraftment of the group treated with compound 40 was double of that of the group treated with XIE18–6.

Structure (SMILES) | expansion of human HSCs in concentration gradient assay [1] | ED50 (activity to promote the expansion of HSCs) [2] [nM] | maintenance of HSCs population [3] | other results
COC(=O)[C@H](NS(=O)(=O)c1ccc(NC(C)=O)cc1)c1ccccc1 [Compound 22] | concentration related |  |  | 
O=C(O)c1ccc(S(=O)(=O)NC2CCCCC2)cc1 [Compound 39, 4-(N-cyclohexylsulfamoyl)benzoic acid] |  | 120 |  | 
CC(=O)Nc1ccc(C(=O)Oc2ccc3c(C(C)C)cc(=O)oc3c2)cc1 [Compound 41, 4-Isopropyl-2-oxo-2H-chromen-7-yl 4-acetamidobenzoate] | concentration related |  |  | 
CC(=O)c1c(C)c2cnc(Nc3ccc(N4CCNCC4)cn3)nc2n(C2CCCC2)c1=O [PD0332991] |  |  | could not maintain HSCs population | 
CC(C)(C)c1cnc(CSc2cnc(NC(=O)C3CCNCC3)s2)o1 [SNS032] |  |  | could not maintain HSCs population | 
CC(=O)Nc1ccc(S(=O)(=O)Oc2ccc3c(C)cc(=O)oc3c2)cc1 [XIE18-6] |  | 105.5 |  | HSC frequency (1 in x of the original plated cells) [4]: 42,490; frequency of HSC, fold higher than control group [4]: 2.7 fold; multi-lineage differentiation profile (GM, T, B) compared with the control group ([5]; 16 weeks after transplantation): did not cause predominant growth of any specific lineages; increase in engraftment compared with the DMSO control group ([5]; CD34-LKS cells cultured 3 days with 20 μM compound, co-transplanted with competitor cells into lethally irradiated mice, bone marrow 16 weeks after transplantation): 3.01 fold; increase in engraftment compared with the uncultured group ([5]; cells cultured 3 days with 20 μM compound, 16 weeks after transplantation): 2.20 fold
